According to patent US8501804B2, “Bicyclic compound” (Takeda Pharmaceutical Company Limited, priority 2008, dated 2013):

What was measured:
human ACC2 (Nd) = target: T1, human ACC2 (Nd) (Homo sapiens, UniProt O00763); experiment: ACC2 inhibitory activity (malachite green); assay type: biochemical; settings: test compound 10 μM; for inhibition at 10 µM: read-out: ACC2 10 μM inhibitory rate (%)
T1 construct: His6 (from vector pFAST-BacHTa); made in house; host or cells: SF-9 insect cells, recombinant baculovirus BAC-ACC2 (Nd)
T1 sequence (O00763 117-2458 limits assumed): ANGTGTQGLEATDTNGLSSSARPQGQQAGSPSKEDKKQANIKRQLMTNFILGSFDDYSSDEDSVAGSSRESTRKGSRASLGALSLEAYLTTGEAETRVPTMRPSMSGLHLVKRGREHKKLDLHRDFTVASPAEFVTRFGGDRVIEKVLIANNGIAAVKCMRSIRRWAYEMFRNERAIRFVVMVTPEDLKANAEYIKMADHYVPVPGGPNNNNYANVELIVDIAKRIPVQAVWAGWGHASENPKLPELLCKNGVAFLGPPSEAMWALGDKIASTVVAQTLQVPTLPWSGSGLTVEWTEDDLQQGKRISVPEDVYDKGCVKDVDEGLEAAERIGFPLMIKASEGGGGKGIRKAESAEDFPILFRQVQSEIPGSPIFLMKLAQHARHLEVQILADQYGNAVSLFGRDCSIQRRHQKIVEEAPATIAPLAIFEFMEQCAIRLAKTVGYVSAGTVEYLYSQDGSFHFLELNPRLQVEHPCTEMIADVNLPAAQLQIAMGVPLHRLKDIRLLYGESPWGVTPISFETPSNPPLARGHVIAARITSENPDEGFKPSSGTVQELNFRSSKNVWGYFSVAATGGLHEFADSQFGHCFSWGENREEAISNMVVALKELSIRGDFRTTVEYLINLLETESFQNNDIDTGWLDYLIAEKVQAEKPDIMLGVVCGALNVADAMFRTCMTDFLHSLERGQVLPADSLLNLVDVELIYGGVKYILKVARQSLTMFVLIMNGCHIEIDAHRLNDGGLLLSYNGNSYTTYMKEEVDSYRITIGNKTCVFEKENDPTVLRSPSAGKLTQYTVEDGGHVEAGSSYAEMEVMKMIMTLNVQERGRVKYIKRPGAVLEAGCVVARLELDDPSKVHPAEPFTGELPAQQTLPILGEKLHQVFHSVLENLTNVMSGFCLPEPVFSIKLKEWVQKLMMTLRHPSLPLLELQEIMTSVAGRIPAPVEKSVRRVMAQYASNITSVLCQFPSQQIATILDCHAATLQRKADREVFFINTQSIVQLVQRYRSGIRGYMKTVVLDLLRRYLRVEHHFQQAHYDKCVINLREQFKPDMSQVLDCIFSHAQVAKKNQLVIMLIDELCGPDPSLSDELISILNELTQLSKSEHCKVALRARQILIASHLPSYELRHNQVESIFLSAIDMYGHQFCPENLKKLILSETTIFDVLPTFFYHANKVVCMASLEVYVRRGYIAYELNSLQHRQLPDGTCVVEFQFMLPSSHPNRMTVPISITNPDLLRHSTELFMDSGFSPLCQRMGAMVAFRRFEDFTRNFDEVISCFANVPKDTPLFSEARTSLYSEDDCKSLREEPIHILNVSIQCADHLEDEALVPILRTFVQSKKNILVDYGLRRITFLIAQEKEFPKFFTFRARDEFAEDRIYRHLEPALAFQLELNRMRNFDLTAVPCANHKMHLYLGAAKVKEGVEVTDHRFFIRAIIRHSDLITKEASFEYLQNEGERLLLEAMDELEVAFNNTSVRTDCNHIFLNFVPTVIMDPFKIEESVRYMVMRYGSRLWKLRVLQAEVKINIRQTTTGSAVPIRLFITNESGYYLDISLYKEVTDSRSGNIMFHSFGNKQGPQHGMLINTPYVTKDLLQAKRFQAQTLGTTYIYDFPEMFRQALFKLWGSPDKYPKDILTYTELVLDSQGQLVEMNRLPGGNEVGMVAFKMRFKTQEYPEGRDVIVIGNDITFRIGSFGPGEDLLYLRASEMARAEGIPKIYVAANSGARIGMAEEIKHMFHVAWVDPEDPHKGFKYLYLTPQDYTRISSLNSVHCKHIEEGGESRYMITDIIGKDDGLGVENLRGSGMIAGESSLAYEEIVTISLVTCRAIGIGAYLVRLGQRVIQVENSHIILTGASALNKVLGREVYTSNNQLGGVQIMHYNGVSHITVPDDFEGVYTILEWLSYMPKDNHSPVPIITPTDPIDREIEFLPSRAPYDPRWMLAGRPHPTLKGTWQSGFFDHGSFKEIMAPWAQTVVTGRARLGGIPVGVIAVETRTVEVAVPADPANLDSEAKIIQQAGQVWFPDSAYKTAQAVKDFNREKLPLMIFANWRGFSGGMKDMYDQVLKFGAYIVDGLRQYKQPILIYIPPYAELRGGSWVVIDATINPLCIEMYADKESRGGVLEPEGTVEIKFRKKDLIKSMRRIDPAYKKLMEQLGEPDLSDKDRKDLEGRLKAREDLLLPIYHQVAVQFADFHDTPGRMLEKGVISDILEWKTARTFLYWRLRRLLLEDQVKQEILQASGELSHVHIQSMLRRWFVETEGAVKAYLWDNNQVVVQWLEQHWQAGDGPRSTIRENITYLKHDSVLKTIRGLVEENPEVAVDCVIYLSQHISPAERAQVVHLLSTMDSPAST
Summary of the method: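 Enzyme: N-terminally truncated human ACC2 lacking the mitochondrial targeting sequence, His-tagged, expressed in baculovirus-infected Sf9 cells and Ni-NTA purified. Working dilution 6.4 μg/ml in 50 mM HEPES pH 7.5, 10 mM MgCl2, 10 mM tripotassium citrate, 2 mM DTT, 0.75 mg/ml fatty-acid-free BSA. Test compound in DMSO.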

human ACC1 = target: T2, human ACC1 (Homo sapiens, UniProt Q13085); experiment: ACC1 inhibitory activity (malachite green); assay type: biochemical; settings: test compound 10 μM; for inhibition at 10 µM: read-out: ACC1 10 μM inhibitory rate (%)
T2 construct: His6 (from vector pFAST-BacHTc); made in house; host or cells: SF-9 insect cells, recombinant baculovirus BAC-ACC1
Summary of the method: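 His-tagged human ACC1 from baculovirus-infected Sf9 cells was Ni-NTA purified, diluted to 8 μg/ml, and preincubated with compound for 60 min at 30 °C in HEPES pH 7.5 buffer with MgCl2, citrate, DTT and BSA. Substrate solution (50 mM KHCO3, 200 μM ATP, 200 μM acetyl-CoA) was added for 20 min at 30 °C. Phosphate was read by malachite green at 620 nm against no-compound and no-acetyl-CoA controls.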

inhibition at 10 µM (human ACC2 (Nd)) [%]	inhibition at 10 µM (human ACC1) [%]	ACC2 10 μM inhibitory rate (%) (human ACC2 (Nd))	ACC1 10 μM inhibitory rate (%) (human ACC1)	Structure (SMILES)
78	24			CCOc1ccc(COc2ccc3cc(C(C)NC(C)=O)sc3c2)cc1 (stereo not drawn) [Example 19, N-(1-{6-[(4-ethoxybenzyl)oxy]-1-benzothiophen-2-yl}ethyl)acetamide]
84	30			CC(=O)NC(C)c1cc2ccc(CCc3ccc(OC4CCCC4)cc3)cc2o1 (stereo not drawn) [Example 170, N-[1-(6-{2-[4-(cyclopentyloxy)phenyl]ethyl}-1-benzofuran-2-yl)ethyl]acetamide]
		75	20	CC(=O)NC(C)c1cc2ccc(CCc3ccc(OCC4CC4)cc3)cc2o1 (stereo not drawn) [Example 191 (retention time shorter), N-[1-(6-{2-[4-(cyclopropylmethoxy)phenyl]ethyl}-1-benzofuran-2-yl)ethyl]acetamide]
		86	51	CC(=O)N[C@@H](C)[C@@H]1Cc2ccc(C#Cc3ccc(OCC4CC4)cc3)cc2O1.CC(=O)N[C@H](C)[C@H]1Cc2ccc(C#Cc3ccc(OCC4CC4)cc3)cc2O1 (mixture of isomers) [Example 129 (retention time longer), N-{(1R)-1-[(2R)-6-{[4-(cyclopropylmethoxy)phenyl]ethynyl}-2,3-dihydro-1-benzofuran-2-yl]ethyl}acetamide and N-{(1S)-1-[(2S)-6-{[4-(cyclopropylmethoxy)phenyl]ethynyl}-2,3-dihydro-1-benzofuran-2-yl]ethyl}acetamide]
		76	18	CCOc1ccc(COc2ccc3oc(C(C)NC(C)=O)cc3c2)cc1 (stereo not drawn) [Example 27, optically active forms (two kinds) of N-(1-{5-[(4-ethoxybenzyl)oxy]-1-benzofuran-2-yl}ethyl)acetamide]
78	30			CC(=O)N[C@H](C)[C@H]1Cc2ccc(C#Cc3ccc(OCC4CC4)cc3)cc2O1 (racemic) [Example 111, 1:1 mixture of N-{(1R)-1-[(2R)-6-{[4-(cyclopropylmethoxy)phenyl]ethynyl}-2,3-dihydro-1-benzofuran-2-yl]ethyl}acetamide and N-{(1S)-1-[(2S)-6-[([4-(cyclopropylmethoxy)phenyl]ethynyl]-2,3-dihydro-1-benzofuran-2-yl]ethyl}acetamide]
		95	41	CC(=O)NC(C)C1Cc2cc(OCc3ccc(OCC4CC4)cc3F)ccc2O1 (stereo not drawn) [Example 141 (retention time shorter), N-[1-(5-{[4-(cyclopropylmethoxy)-2-fluorobenzyl]oxy}-2,3-dihydro-1-benzofuran-2-yl)ethyl]acetamide]
70	12			CCOc1ccc(CCc2cnc3cc([C@H](C)NC(C)=O)oc3c2)cc1 [Example 107, N-[(1S)-1-{6-[2-(4-ethoxyphenyl)ethyl]furo[3,2-b]pyridin-2-yl}ethyl]acetamide]
70	24			CC(=O)NC(C)c1cc2cc(OCc3ccc(OCC4CC4)nc3F)ccc2o1 (stereo not drawn) [Example 153, N-[1-(5-{[6-(cyclopropylmethoxy)-2-fluoropyridin-3-yl]methoxy}-1-benzofuran-2-yl)ethyl]acetamide]
